Test results from US20260078111A1, “CARBONIC ANHYDRASE ENZYME INHIBITORS AND METHODS OF USE THEREOF” (RUTGERS, THE STATE UNIVERSITY OF NEW JERSEY, priority 2022, published 2026).
pIC50: −log10 of the molar value.

Key:
[1] = test system: mast cell development from murine bone marrow cells; experiment: In vitro mast cell development culture assay (IL-3, flow cytometry); type: cell-based, mice
Method: To further test the ability of 4-(3-hydroxy-1-(4-methoxybenzyl)-2-oxoindolin-3-yl)benzenesulfonamide to inhibit mast cell development, an established mast cell culture assay was employed (Henry, E. K., et al., J Exp Med, 2016. 213(9): p. 1663-73). As a positive control for mast cell development, bone marrow cells were isolated from the femur of mice and cultured in the presence of 10 ng/mL of IL-3 and vehicle (1:10, DMSO/RPMI complete media) for seven days and mast cells were identified by flow cytometric analysis as (c-Kit+ FceRIa+ CD49b− cells).
In vitro Mast Cell development: Briefly, 1×10^6 bone marrow-resident progenitor cells were isolated from the femur of mice and cultured in complete media supplemented with 10 ng/mL of rIL-3 for a period of […]. Mast cells were identified by their expression of the surface molecules FcεRIα and c-Kit via flow cytometric analysis. In addition to IL-3, cultures were treated with vehicle or increasing concentrations of Car enzyme inhibitors at the indicated concentrations.

[2] = test system: intestinal mast cell responses; experiment: Trichinella spiralis-induced mastocytosis model; type: in vivo; settings: 2 mg/day i.p., T. spiralis-infected mice, day 10 post-infection
Description: To address this, a model of Trichinella spiralis-induced mastocytosis was employed and the capacity of MZ and 4-(3-hydroxy-1-(4-methoxybenzyl)-2-oxoindolin-3-yl)benzenesulfonamide to inhibit intestinal mast cell responses was directly compared (Henry, E. K., et al., J Exp Med, 2016. 213(9): p. 1663-73). Briefly, mice were infected with T. spiralis and treated with either vehicle, MZ or 4-(3-hydroxy-1-(4-methoxybenzyl)-2-oxoindolin-3-yl)benzenesulfonamide and intestinal mast cells were quantified via esterase staining and histological analysis (Henry, E. K., et al., J Exp Med, 2016. 213(9): p. 1663-73).
Trichinella spiralis infection: Mice were infected with 500 T. spiralis muscle stage larvae by oral gavage and were treated with vehicle (1:5, DMSO/PBS), 2 mg MZ, or 2 mg 4-(3-hydroxy-1-(4-methoxybenzyl)-2-oxoindolin-3-yl)benzenesulfonamide (CAR0037) i.p. daily; mice were sacrificed between on day 10-post infection and mast cell responses in the small intestine were evaluated by esterase staining as described previously (Henry, E. K., et al., J Exp Med, 2016. 213(9): p. 1663-73).

recombinant human Car1 = recombinant human Car1 (Homo sapiens, UniProt P00915); experiment: Stopped-flow assay of Car1 enzyme inhibition (IC50); type: biochemical
Sequence of recombinant human Car1 (P00915 whole entry): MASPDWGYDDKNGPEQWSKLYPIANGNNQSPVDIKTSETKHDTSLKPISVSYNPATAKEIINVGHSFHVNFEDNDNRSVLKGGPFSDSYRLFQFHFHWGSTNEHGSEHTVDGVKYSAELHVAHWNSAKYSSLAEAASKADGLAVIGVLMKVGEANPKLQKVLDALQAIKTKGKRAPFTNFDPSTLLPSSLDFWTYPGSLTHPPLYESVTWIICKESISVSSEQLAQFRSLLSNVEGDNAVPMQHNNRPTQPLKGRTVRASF
Method: Stopped-flow: IC50 values were established using an SX20 stopped-flow spectrometer from […]. In one syringe of the SX20, recombinant human Car1 was kept at a concentration of 9 μM in a sodium phosphate buffer and inhibitors were added to this solution at 0 nM, 10 nM, 20 nM, 80 nM and 100 nM. In a second syringe, a saturated CO2 solution was mixed with 0.2 mM phenol red. This series of dilutions allow for the evaluation of how quickly Car1 can metabolize the CO2 in the absence of an inhibitor and for the determination of whether that process is inhibited as increasing concentrations of compounds are added.

Compound: CC(=O)/N=c1/sc(S(N)(=O)=O)nn1C [MZ, methazolamide, reference compound]
- mast cell numbers ([1]; 30 μg/mL (126.97 uM), IL-3 10 ng/mL, seven days): significantly decreased mast cell numbers
- inhibition at 126 µM ([1]; Mus musculus, Mast cell, read-out: POI of control (percent of inhibition based on MC numbers)): 78 to 100%
- intestinal mast cell responses post-infection (esterase staining) [2]: no changes in mast cell responses

Compound: COc1ccc(CN2C(=O)C(O)(c3ccc(S(N)(=O)=O)cc3)c3ccccc32)cc1 (stereo not drawn) [CAR0037, 4-(3-hydroxy-1-(4-methoxybenzyl)-2-oxoindolin-3-yl)benzenesulfonamide]
- pIC50 (recombinant human Car1): 10.36
- inhibition of mast cell development compared to MZ ([1]; 10 uM, IL-3 10 ng/mL, seven days, versus 126.97 uM MZ): inhibited mast cell development as effectively as 126.97 uM of MZ
- intestinal mast cell responses post-infection (esterase staining) [2]: significantly decreased intestinal mast cell numbers
